The structures appear in SMILES notation. ≈ marks a conversion by molar mass, not a printed value.

The nature of data set [1]: Kinetic solubility in aqueous buffer pH 7.4 by total chemiluminescent nitrogen determination (Analiza). The settings on record: aqueous buffer, pH 7.4, aqueous buffer, kinetic from dmso stock.
Data set [2] deals with BV2 (mouse microglia) cell line. Put plainly: pHrodo-myelin phagocytosis/cell viability high content imaging assay: phagocytosis signal. Format: cell-based. In outline:
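Mouse BV2 and human HMC3 microglia given pHrodo-myelin; phagocytosis and cell viability imaged together by high content imaging about 22 hours after myelin addition. Three measurements extracted, including intensity increase and decrease marking early and later apoptosis.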

For data set [3] the test system is unchanged. Nature of the data set: pHrodo-myelin phagocytosis/cell viability high content imaging assay: viability (cell count, nuclear area, nuclear intensity). In outline:
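Duplicate single-point screen at 10 μM over 48 h, combined with pHrodo-myelin phagocytosis during the last 20 h. Cytotoxicity is taken from imaged cell counts and nuclear intensity changes, normalized to untreated wells as % control.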

`CC/C(=C(\c1ccc(O)cc1)c1ccc(OCCN(C)C)cc1)c1ccccc1` [Afimoxifene]: the kinetic solubility (in general, solubility judged after dilution from a stock solution rather than from solid) in data set [1] stood at 19.5 µM (≈ 7.56 µg/mL). Moreover, the “Stimulation of mouse microglial phagocytosis at 10 μM (>150% control)” value (shortened to “Stimulation … (>150% control)”) in data set [2] (BV2, 10 μM) is reported as “Y (The compound was found to stimulate phagocytosis (response threshold: >150% control) when murine immortalized microglial cells were dosed at 10 μM (Y: yes))”.

In turn, `COc1cc(N2CCC(N3CCN(C)CC3)CC2)ccc1Nc1ncc(Cl)c(Nc2ccccc2P(C)(C)=O)n1` [Brigatinib] registered a kinetic solubility in data set [1] of 123 µM (≈ 72.1 µg/mL). Also, the “Mouse microglial cytotoxicity at 10 μM (<70% control)” value in data set [3] (BV2, 10 μM) was “Y (The compound was found to be cytotoxic (cell count threshold: <70% control) when murine immortalized microglial cells were dosed at 10 μM (Y: yes))”. In addition, in data set [2] (BV2, 10 μM), the “Stimulation … (>150% control)” value was “Y (The compound was found to stimulate phagocytosis (response threshold: >150% control) when murine immortalized microglial cells were dosed at 10 μM (Y: yes))”.

In turn, `Cc1ccccc1NC(=O)CN1C(=O)N/C(=C/c2ccccc2OCc2ccc(C(=O)O)cc2)C1=O` [CHEMBL1416302] gave a solubility (kinetic) in data set [1] of 26.6 µM (≈ 12.9 µg/mL). For the same compound, the “Stimulation … (>150% control)” value in data set [2] (BV2 cells, 10 μM) was “Y (The compound was found to stimulate phagocytosis (response threshold: >150% control) when murine immortalized microglial cells were dosed at 10 μM (Y: yes))”.

In turn, `Cc1ccc(-n2nc(C(C)(C)C)cc2NC(=O)Nc2ccc(OCCN3CCOCC3)c3ccccc23)cc1` [Doramapimod (BIRB 796)] gave a solubility (kinetic) in data set [1] of 3.6 µM (≈ 1.9 µg/mL). Further, in data set [2] (10 μM, BV2), the “Stimulation … (>150% control)” value is “Y (The compound was found to stimulate phagocytosis (response threshold: >150% control) when murine immortalized microglial cells were dosed at 10 μM (Y: yes))”.

`CN1C[C@H](Nc2cnn(C)c(=O)c2Br)C[C@H](c2ccccc2)C1` [GSK4027] showed a solubility (kinetic) in data set [1] of 126 µM (≈ 47.6 µg/mL).

For `CC(C)c1ccc(/C=N/NC(=O)c2ccc(O)cc2)cc1` [GSK 4716], the solubility (kinetic) in data set [1] was 215 µM (≈ 60.6 µg/mL).

In data set [1], `Cl.O=C(O)Cc1cccc(OCCCN(Cc2cccc(C(F)(F)F)c2Cl)CC(c2ccccc2)c2ccccc2)c1` [GW 3965 HCl] returned a solubility (kinetic) of 4.1 µM.

`Cc1cccc(-c2nn3c(c2-c2ccnc4ccc(C(N)=O)cc24)CCC3)n1` [Galunisertib]: the solubility (kinetic) in data set [1] worked out at 249 µM (≈ 92.1 µg/mL). Besides, the “Stimulation … (>150% control)” value in data set [2] (BV2, 10 μM) is “Y (The compound was found to stimulate phagocytosis (response threshold: >150% control) when murine immortalized microglial cells were dosed at 10 μM (Y: yes))”.

Compound `Clc1ccc(N/N=C(\c2ccccc2)c2ccccn2)nc1` [JIB-04] yielded a kinetic solubility in data set [1] of 24.3 µM (≈ 7.5 µg/mL). Moreover, in data set [3] (10 μM, BV2), the “Mouse microglial cytotoxicity at 10 μM (<70% control)” value was “Y (The compound was found to be cytotoxic (cell count threshold: <70% control) when murine immortalized microglial cells were dosed at 10 μM (Y: yes))”. Further, the “Stimulation … (>150% control)” value in data set [2] (10 μM, BV2) is “Y (The compound was found to stimulate phagocytosis (response threshold: >150% control) when murine immortalized microglial cells were dosed at 10 μM (Y: yes))”.

Turning to `CC(C)(O)c1coc(S(=O)(=O)NC(=O)Nc2c3c(cc4c2CCC4)CCC3)c1` [MCC950], in data set [1], the kinetic solubility stood at 119 µM (≈ 48.2 µg/mL).

In data set [1], `Cc1cc(NC(=O)Nc2ccc(F)c(F)c2)n(-c2ccccc2)n1` [ML 297] displayed a solubility (kinetic) of 49.9 µM (≈ 16.4 µg/mL). In addition, the “Stimulation … (>150% control)” value in data set [2] (10 μM, BV2) is reported as “Y (The compound was found to stimulate phagocytosis (response threshold: >150% control) when murine immortalized microglial cells were dosed at 10 μM (Y: yes))”.

Regarding `O=c1[nH]c(=O)n([C@H]2C[C@H](O)[C@@H](CO)O2)cc1/C=C/Br` [RP101 (Brivudine)], the kinetic solubility in data set [1] stood at 199 µM (≈ 66.2 µg/mL).

In the case of `O=C(NNc1nc2cc(F)ccc2n2cccc12)c1cnccn1` [SC144], in data set [1], the solubility (kinetic) came out at 2.7 µM (≈ 0.87 µg/mL). The “Mouse microglial cytotoxicity at 10 μM (<70% control)” value in data set [3] (10 μM, BV2) is recorded as “Y (The compound was found to be cytotoxic (cell count threshold: <70% control) when murine immortalized microglial cells were dosed at 10 μM (Y: yes))”. The “Stimulation … (>150% control)” value in data set [2] (10 μM, BV2) was “Y (The compound was found to stimulate phagocytosis (response threshold: >150% control) when murine immortalized microglial cells were dosed at 10 μM (Y: yes))”.

Consider `COCCOCCOC(=O)N[C@@H](CC(C)C)C(=O)N[C@@H](Cc1ccccc1)C(=O)C(=O)NC1CC1` [SNJ-1945], for which the kinetic solubility in data set [1] was 150 µM (≈ 73.9 µg/mL).

Regarding `CCOC(=O)N1CCC(Nc2c(NCCN3CCN(c4cccc(C(F)(F)F)c4)CC3)c(=O)c2=O)CC1` [Squarunkin A], the solubility (kinetic) in data set [1] came to 0.7 µM (≈ 0.366 µg/mL).

Take `C=CC[C@@H]1/C=C(\C)C[C@H](C)C[C@H](OC)[C@H]2O[C@@](O)(C(=O)C(=O)N3CCCC[C@H]3C(=O)O[C@H](/C(C)=C/[C@@H]3CC[C@@H](O)[C@H](OC)C3)[C@H](C)[C@@H](O)CC1=O)[C@H](C)C[C@@H]2OC` [Tacrolimus]: the solubility (kinetic) in data set [1] amounted to 95.5 µM (≈ 76.8 µg/mL). In addition, the “Mouse microglial cytotoxicity at 10 μM (<70% control)” value in data set [3] (10 μM, BV2) is “Y (The compound was found to be cytotoxic (cell count threshold: <70% control) when murine immortalized microglial cells were dosed at 10 μM (Y: yes))”. The “Stimulation … (>150% control)” value in data set [2] (10 μM, BV2) is listed as “Y (The compound was found to stimulate phagocytosis (response threshold: >150% control) when murine immortalized microglial cells were dosed at 10 μM (Y: yes))”.

`Cc1ccccc1C(=O)Nc1ccc(C(=O)N2CCCC(O)c3cc(Cl)ccc32)c(C)c1` (stereo not shown) [Tolvaptan] returned a kinetic solubility in data set [1] of 31.8 µM (≈ 14.3 µg/mL). Moreover, the “Stimulation … (>150% control)” value in data set [2] (BV2, 10 μM) was “Y (The compound was found to stimulate phagocytosis (response threshold: >150% control) when murine immortalized microglial cells were dosed at 10 μM (Y: yes))”.

Turning to `N#Cc1ccc(COC[C@H]2O[C@@H](n3c(NCc4ccc(Cl)c(Cl)c4)nc4c(N)ncnc43)[C@H](O)[C@@H]2O)cc1` [VER-155008], the solubility (kinetic) in data set [1] worked out at 14.3 µM (≈ 7.96 µg/mL). The “Mouse microglial cytotoxicity at 10 μM (<70% control)” value in data set [3] (10 μM, BV2) is “Y (The compound was found to be cytotoxic (cell count threshold: <70% control) when murine immortalized microglial cells were dosed at 10 μM (Y: yes))”. Also, the “Stimulation … (>150% control)” value in data set [2] (10 μM, BV2) was “Y (The compound was found to stimulate phagocytosis (response threshold: >150% control) when murine immortalized microglial cells were dosed at 10 μM (Y: yes))”.

For the compound `CC1(C)CCC(CN2CCN(c3ccc(C(=O)NS(=O)(=O)c4ccc(NCC5CCOCC5)c([N+](=O)[O-])c4)c(Oc4cnc5[nH]ccc5c4)c3)CC2)=C(c2ccc(Cl)cc2)C1` [Venetoclax (ABT-199)], the kinetic solubility in data set [1] was 6.3 µM (≈ 5.47 µg/mL). The “Stimulation … (>150% control)” value in data set [2] (BV2, 10 μM) is recorded as “Y (The compound was found to stimulate phagocytosis (response threshold: >150% control) when murine immortalized microglial cells were dosed at 10 μM (Y: yes))”.

`Cc1cnc(Nc2ccc(F)cc2Cl)nc1-c1c[nH]c(C(=O)N[C@H](CO)c2cccc(Cl)c2)c1` [Vertex 11e] had a solubility (kinetic) in data set [1] of 1.4 µM (≈ 0.701 µg/mL).

`CCn1c(=O)/c(=C2\Sc3ccccc3N2C)s/c1=C\c1ccccn1` [YM-08] had a solubility (kinetic) in data set [1] of 4.6 µM (≈ 1.69 µg/mL).

Regarding `O=C(O)c1cc2nc(-c3ccc(Cl)cc3)cc(C(F)(F)F)n2n1` [ZINC00184372], the solubility (kinetic) in data set [1] is 270 µM (≈ 92.2 µg/mL). For the same compound, in data set [2] (10 μM, BV2), the “Stimulation … (>150% control)” value was “Y (The compound was found to stimulate phagocytosis (response threshold: >150% control) when murine immortalized microglial cells were dosed at 10 μM (Y: yes))”.

Take `COc1cc(C(=O)NS(=O)(=O)c2ccccc2C)ccc1Cc1cn(C)c2ccc(NC(=O)OC3CCCC3)cc12` [Zafirlukast]: the kinetic solubility in data set [1] came out at 129 µM (≈ 74.4 µg/mL).

`O=c1oc2ccccc2cc1-c1cn2cc(Cc3ccc(F)cc3)sc2n1` [iMDK] showed a solubility (kinetic) in data set [1] of under 1.1 µM. For the same compound, the “Mouse microglial cytotoxicity at 10 μM (<70% control)” value in data set [3] (10 μM, BV2) is recorded as “Y (The compound was found to be cytotoxic (cell count threshold: <70% control) when murine immortalized microglial cells were dosed at 10 μM (Y: yes))”.
